Assay results taken from patent US6620583B2, “Diagnostic screens for type 1 diabetes (IDDM)” (Boston Medical Center Corporation, priority 1998, dated 2003).

Columns and labels:
Assay type in all cases: cell-based, human
[1] = tested on: dermal fibroblasts from type I diabetic patients and matched controls; assay: Bradykinin-induced Ca2+ mobilization in fura-2 AM loaded fibroblasts (fluorescence spectrophotometry)
Description: The following examples describe novel findings upon which the present invention is based, at least in part. In particular, the present inventors have determined the effects of tumor necrosis factor alpha (TNF-α) treatment, and the diabetic environment (elevated glucose and fatty acid), on bradykinin-induced Ca^2+ mobilization in dermal fibroblasts from type I diabetic patients and matched controls. Fibroblasts were exposed to TNF-α (10 ng/ml) for up to 48 hours. Cells in suspension were then loaded with fura-2 acetoxymethyl ester, and bradykinin-induced Ca^2+ mobilization was measured using fluorescence spectrophotometry. […] With 24 hours of treatment, TNF-α-induced increments in peak bradykinin response were three-fold greater in diabetics than in controls (P<0.001).
Briefly, fibroblasts from 7 control and 10 diabetic donors (passages 7 to 30) were loaded with fura-2 AM and Ca^2+ mobilization in response to increasing concentrations of bradykinin was determined.
Briefly, paired flasks of cells were treated with TNF-α or left untreated. Fura-loaded cells were stimulated with 20 nM bradykinin and Ca^2+ mobilization was measured after 200 seconds. […] Fibroblasts were fura-2 AM loaded and Ca^2+ mobilization in response to increasing concentrations of bradykinin was determined. Each bar represents the mean of 14 to 33 separate determinations. In cells from both control and diabetic donors, TNF-α treatment augmented bradykinin induced Ca^2+ mobilization, although to a much greater extent in the diabetic donor. […] A small increase in the final equilibrium level of Ca^2+ was also seen consistently in the diabetic fibroblasts, but not in the controls.
The difference between control and diabetic cells can be seen more clearly through the bradykinin-induced increment between untreated and TNF-α treated. […] The change in peak response to bradykinin after TNF-α treatment was measures in fibroblasts from 7 control and 10 diabetic donors (3-8 separate experiments per donor). Each bar on the graph represents the mean of 14 to 34 separate determinations. […] ANOVA indicated an overall difference between control and diabetic (p<0.001), and specific differences between control and diabetic (Tukey p<0.001) at every bradykinin concentration above 1 nM.
Following the initial bradykinin induced peak of Ca^2+ mobilized from the ER, a sustained elevation of Ca^2+ occurs lasting for minutes. This sustained elevation in steady state Ca^2+ requires Ca^2+ entry from the extracellular space. Inappropriate elevation of Ca^2+ may lead to cell injury, apoptosis and death by activation of phospholipases, nucleases, and proteases (Cheung et al. (1986) N. Engl. J. Med. 314:1670-1676): thus, inappropriately elevated Ca^2+ in diabetic cells could be an important mechanisms for initiating diabetic pathology. Because of the important signal transducing properties of the sustained phase of the Ca^2+ response, the effects of TNF-α treatment on the steady state were examined. Briefly, fibroblasts from 7 control and 10 diabetic donors were exposed to 10 ng/ml TNF-α for 24 hours prior to bradykinin stimulation. The magnitude of the final steady state, or resting, intracellular [Ca^2+] following stimulation with bradykinin was determined. Each bar represents the mean of 14 to 34 separate determinations.
To determine whether the TNF-α induced increase in the peak bradykinin response was due to mobilization of Ca^2+ from intracellular stores, the Ca^2+ chelator EGTA was added prior to stimulation with bradykinin. FIG. 9 illustrates an experiment in which fibroblasts were treated with TNF-α for 24 hours or left untreated and the peak bradykinin response measured in the presence or absence of 2 mM EGTA. In these traces, 2 mM EGTA was added 10 seconds prior to stimulation with 200 nM bradykinin. The peak response was unaltered by EGTA in untreated and TNF-α treated cells. […]

[2] = tested on: fibroblasts from control and IDDM donors; assay: Thapsigargin-mediated emptying of intracellular Ca2+ stores in fura-loaded fibroblasts
Description: Thapsigargin, an irreversible inhibitor of the intracellular Ca^2+-ATPase, was used to determine if the TNF-α induced increment in peak bradykinin response was mediated by changes in the bradykinin signal transduction cascade, or was at the level of the intracellular Ca^2+ stores by irreversibly inhibiting their refilling FIG. 10 illustrates representative traces in which thapsigargin was added to untreated and TNF-α treated cells from control and IDDM donors. […] Potential mechanisms include alterations in modulation of Ca^2+-ATPase activity, changes in the ATPase itself or alterations in intraluminal signaling.

calreticulin = assay: Western blot of calreticulin expression in fibroblasts; conditions: 24 hr of TNF-α treatment
Text: Although TNF-α is known to turn on a multitude of genes in many different cell types, including the fibroblast (Tessier et al. (1993) Arthritis & Rheumatism 36:1528-1539; Rathanaswami et al. (1993) Arthritis & Rheumatism 36:1295-1304; Butler et al. (1994) Eur. Cytokine Network 5:441-448), it is possible that new protein synthesis is required to replete a component of the signal transduction apparatus that is constantly being turned over.

Molecule: CCCCCCCC/C=C\CCCCCCCC(=O)O [oleate, oleic acid]
- effect on peak bradykinin response (% of 5.6 mM glucose) ([1]; 2 mM oleate with 11 mM glucose, 3 control and 4 diabetic donors, ANOVA p<0.001): significant effects
- effect on steady state [Ca2+]i following bradykinin stimulation ([1]; 2 mM oleic acid with 11 mM glucose, 3 control and 4 diabetic donors, p<0.001): significant effect

Molecule: TNF-α
- treatment time at which maximum TNF-α induced increment in peak bradykinin response is achieved ([1]; 10 ng/ml TNF-α, 3 donors, not diminished by 48 hr): ≤ 24 h
- TNF-α induced increment in bradykinin-induced Ca2+ mobilization, diabetic cells versus control cells ([1]; TNF-α 10 ng/ml for 24 hours, 7 control and 10 diabetic donors): 3 fold
- effect on steady state Ca2+ following the bradykinin response ([1]; TNF-α 10 ng/ml for 24 hours, control and diabetic donors, ANOVA p<0.001): significant elevations of steady state Ca^2+
- effect on bradykinin-induced Ca2+ mobilization ([1]; TNF-α 10 ng/ml, 24 hour incubation, 20 nM bradykinin, control and diabetic donors): potentiated bradykinin-induced Ca^2+ mobilization
- treatment time from which increases in bradykinin-induced Ca2+ mobilization were observed ([1]; TNF-α 10 ng/ml, bradykinin 1 nM to 1 μM, controls and diabetics): ≥ 1 h
- effect on basal intracellular Ca2+ ([1]; TNF-α 10 ng/ml, p<0.05): significant increase in basal Ca^2+ in diabetic but not control cells
- effect on peak bradykinin response in control donors, diabetic milieu experiment ([1]; control donors, 48 hours FFA medium, TNF-α final 24 hours, data not shown): little or no effect
- effect of TNF-α on thapsigargin-induced Ca2+ transients ([2]; TNF-α treated versus untreated fibroblasts): greater in TNF-α treated fibroblasts than in untreated cells
- effect on calreticulin expression (calreticulin): no change in calreticulin expression

Molecule: C[C@@H]1C[C@@H]([C@H](O)CC2CC(=O)NC(=O)C2)C(=O)[C@@H](C)C1 [cycloheximide, reference compound]
- effect on TNF-α induced increment in bradykinin response ([1]; protein synthesis inhibitor given with TNF-α): blocked the TNF-α induced increment

Molecule: O=C(O)CN(CCOCCOCCN(CC(=O)O)CC(=O)O)CC(=O)O [EGTA, reference compound]
- effect on final [Ca2+]i after bradykinin ([1]; 2 mM EGTA added 10 seconds prior to 200 nM bradykinin): eliminate the increase in final [Ca^2+]I
- effect on peak bradykinin response ([1]; 2 mM EGTA added 10 seconds prior to 200 nM bradykinin, untreated and TNF-α treated cells): unaltered

Molecule: C/C=C(/C)C(=O)O[C@H]1C(C)=C2[C@H]([C@@H]1OC(=O)CCCCCCC)[C@@](C)(OC(C)=O)C[C@H](OC(=O)CCC)[C@@]1(O)[C@H]2OC(=O)[C@@]1(C)O [thapsigargin, reference compound]
- effect of thapsigargin on cytosolic Ca2+ ([2]; untreated and TNF-α treated cells): transient rise of cytosolic Ca^2+
